Assays:
CYP3A [1] = target: T1, CYP3A (Homo sapiens, UniProt P08684+P20815+P24462+Q9HB55); assay: Inhibition of CYP3A-mediated 1'-OH midazolam formation in human liver microsomes after 7.5 mins by LC-MS method; assay type: ADME; settings: probe midazolam (1'-OH midazolam formation)
Cytochrome P450 3A4 [2] = target: T2, Cytochrome P450 3A4 (Homo sapiens, UniProt P08684); assay: Inhibition of human CYP3A4 expressed in supersomes assessed inhibition of 1'-OH midazolam formation by LC-MS method; assay type: ADME
T2 sequence (P08684 whole entry): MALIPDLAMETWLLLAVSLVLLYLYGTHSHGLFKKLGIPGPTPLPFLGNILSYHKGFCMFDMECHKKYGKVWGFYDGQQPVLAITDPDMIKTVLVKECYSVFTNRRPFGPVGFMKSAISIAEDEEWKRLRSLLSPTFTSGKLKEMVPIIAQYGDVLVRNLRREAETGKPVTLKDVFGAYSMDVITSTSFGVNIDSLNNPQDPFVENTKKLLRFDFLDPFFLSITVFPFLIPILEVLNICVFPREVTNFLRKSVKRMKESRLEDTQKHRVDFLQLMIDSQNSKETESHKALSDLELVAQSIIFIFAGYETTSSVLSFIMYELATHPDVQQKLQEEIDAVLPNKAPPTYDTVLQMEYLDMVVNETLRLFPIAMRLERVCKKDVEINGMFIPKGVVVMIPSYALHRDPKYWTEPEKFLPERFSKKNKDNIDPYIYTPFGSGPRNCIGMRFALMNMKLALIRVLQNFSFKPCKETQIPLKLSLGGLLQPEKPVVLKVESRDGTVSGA

Cytochrome P450 3A5 [3] = target: T3, Cytochrome P450 3A5 (Homo sapiens, UniProt P20815); assay: Inhibition of human CYP3A5 expressed in supersomes assessed inhibition of 1'-OH midazolam formation preincubated with compound before substrate addition by LC-MS method; assay type: ADME
T3 sequence (P20815 whole entry): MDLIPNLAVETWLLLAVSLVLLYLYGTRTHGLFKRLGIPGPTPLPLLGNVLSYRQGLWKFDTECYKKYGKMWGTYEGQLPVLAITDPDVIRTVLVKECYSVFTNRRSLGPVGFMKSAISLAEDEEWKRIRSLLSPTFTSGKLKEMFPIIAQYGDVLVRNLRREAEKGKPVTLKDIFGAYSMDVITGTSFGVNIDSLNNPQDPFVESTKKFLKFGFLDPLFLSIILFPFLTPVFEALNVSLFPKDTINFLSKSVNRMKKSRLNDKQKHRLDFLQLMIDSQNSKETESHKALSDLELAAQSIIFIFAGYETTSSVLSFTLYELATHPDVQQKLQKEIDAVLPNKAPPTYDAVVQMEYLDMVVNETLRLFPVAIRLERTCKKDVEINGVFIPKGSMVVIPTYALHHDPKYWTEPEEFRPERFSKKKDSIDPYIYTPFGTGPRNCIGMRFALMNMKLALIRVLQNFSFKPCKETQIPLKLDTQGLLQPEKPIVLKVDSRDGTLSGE

CYP3A [4] = target: T1, CYP3A; assay: Inhibition of CYP3A-mediated 1'-OH midazolam formation in human liver microsomes preincubated for 15 mins before substrate addition by LC-MS method; assay type: ADME; settings: probe midazolam (1'-OH midazolam formation)
Cytochrome P450 3A4 [5] = target: T2, Cytochrome P450 3A4; assay: Reversible competitive inhibition of human CYP3A4-mediated 1'-OH midazolam formation in human liver microsomes after 7.5 mins by nonlinear regression study; assay type: ADME
CYP3A5 [6] = target: T4, CYP3A5 (Homo sapiens, UniProt P20815); assay: Ratio of IC50 for human CYP3A5 expressed in supersomes by coincubation study to IC50 for human CYP3A5 expressed in supersomes by preincubation study; settings: supersomes expressing human CYP3A5, read-out: Ratio IC50
T4 sequence (P20815 whole entry): as above

CYP3A [7] = target: T1, CYP3A; assay: Competitive inhibition of CYP3A in human liver microsomes; assay type: ADME
Cytochrome P450 3A5 [8] = target: T3, Cytochrome P450 3A5; assay: Reversible competitive inhibition of human CYP3A5-mediated 1'-OH midazolam formation in human liver microsomes after 7.5 mins by nonlinear regression study; assay type: ADME
CYP3A4 [9] = target: T5, CYP3A4 (Homo sapiens, UniProt P08684); assay: Inhibition of human CYP3A4 expressed in supersomes assessed inhibition of 1'-OH midazolam formation preincubated at 2 uM followed by addition of 20-fold diluted buffer with 20 uM MDZ by LC-MS method in presence of NADPH; assay type: ADME; settings: supersomes expressing human CYP3A4, probe midazolam (20 uM; 1'-OH midazolam formation)
T5 sequence (P08684 whole entry): as the sequence (P08684 whole entry) above

CYP3A5 [10] = target: T4, CYP3A5; assay: Inhibition of human CYP3A5 expressed in supersomes assessed inhibition of 1'-OH midazolam formation preincubated at 2 uM followed by addition of 20-fold diluted buffer with 20 uM MDZ by LC-MS method in presence of NADPH; assay type: ADME; settings: supersomes expressing human CYP3A5, probe midazolam (20 uM; 1'-OH midazolam formation)
Cytochrome P450 3A4 [11] = target: T2, Cytochrome P450 3A4; assay: Inhibition of human CYP3A4 expressed in supersomes assessed inhibition of 1'-OH midazolam formation preincubated with compound before substrate addition by LC-MS method; assay type: ADME
CYP3A5 [12] = target: T4, CYP3A5; assay: Inhibition of human CYP3A5 expressed in supersomes assessed inhibition of 1'-OH midazolam formation preincubated with compound for 2.5 to 30 mins followed by addition of 20-fold diluted buffer with 20 uM MDZ by LC-MS method; assay type: ADME; settings: supersomes expressing human CYP3A5, probe midazolam (20 uM; 1'-OH midazolam formation)
CYP3A [13] = target: T1, CYP3A; assay: Reversible competitive inhibition of CYP3A-mediated 1'-OH midazolam formation in human liver microsomes after 7.5 mins by nonlinear regression study; assay type: ADME; settings: probe midazolam (1'-OH midazolam formation)
Cytochrome P450 3A5 [14] = target: T3, Cytochrome P450 3A5; assay: Inhibition of human CYP3A5 expressed in supersomes assessed inhibition of 1'-OH midazolam formation by LC-MS method; assay type: ADME
CYP3A4 [15] = target: T5, CYP3A4; assay: Ratio of IC50 for human CYP3A4 expressed in supersomes by coincubation study to IC50 for human CYP3A4 expressed in supersomes by preincubation study; settings: supersomes expressing human CYP3A4, read-out: Ratio IC50
CYP3A4 [16] = target: T5, CYP3A4; assay: Inhibition of human CYP3A4 expressed in supersomes assessed inhibition of 1'-OH midazolam formation preincubated with compound for 2.5 to 30 mins followed by addition of 20-fold diluted buffer with 20 uM MDZ by LC-MS method; assay type: ADME; settings: supersomes expressing human CYP3A4, probe midazolam (20 uM; 1'-OH midazolam formation)
[17] = human, recombinant enzyme, TDE = time-dependent effect

IC50 at 7.5 min (CYP3A [1]): 940 nM
IC50 (Cytochrome P450 3A4 [2]): 620 nM
inhibition (INH) (Cytochrome P450 3A4 [2]; [17]): tde
IC50 (Cytochrome P450 3A5 [3]): 140 nM
inhibition (INH) (Cytochrome P450 3A5 [3]; [17]): tde
IC50 (CYP3A [4]): 740 nM
Ki (Cytochrome P450 3A4 [5]): 2660 nM
Ki (CYP3A [7]): 360 nM
Ki (Cytochrome P450 3A5 [8]): 2690 nM
inhibition at 2 µM (CYP3A4 [9]): 42%
inhibition at 2 µM (CYP3A5 [10]): 52%
IC50 (Cytochrome P450 3A4 [11]): 120 nM
inhibition (INH) (Cytochrome P450 3A4 [11]; [17]): tde
kinact (CYP3A5 [12]): 0.0035 s⁻¹
Ki at 7.5 min (CYP3A [13]): 610 nM
IC50 (Cytochrome P450 3A5 [14]): 630 nM
inhibition (INH) (Cytochrome P450 3A5 [14]; [17]): tde
kinact (CYP3A4 [16]): 0.005 s⁻¹
SMILES: C=CC[C@@H]1/C=C(\C)C[C@H](C)C[C@H](OC)[C@H]2O[C@@](O)(C(=O)C(=O)N3CCCC[C@H]3C(=O)O[C@H](/C(C)=C/[C@@H]3CC[C@@H](O)[C@H](OC)C3)[C@H](C)[C@@H](O)CC1=O)[C@H](C)C[C@@H]2OC [TACROLIMUS ANHYDROUS]
IC50 shift (CYP3A5 [6]): 5
IC50 shift (CYP3A4 [15]): 5

From ChEMBL document CHEMBL3526092 (Drug Metab Dispos, 2012)
